Converted amounts (≈) assume the structure as drawn. Where two headings read alike, the source gives them in different places. Blank lines part the entries; values can stand above or below the molecule they belong to.
Columns and labels:
[1] = Dye content of TMB solution, A (285 nm): amount of unrestricted benzidine rings in solution; type: physicochemical
Procedure: A TMB solution was prepared having the following concentration of reagents: 3 mM TMB (Sigma, Cat #T-2885), 0.5% dimethylsulfoxide (DMSO; […] Various chemicals, used at 0.5M in the TMB solution, were compared against the betaine reagent in non-encapsulation solubilization methods. Glycine (Sigma, Cat #G8898), sarcosine (Sigma, Cat #131776), choline chloride (Sigma, Cat #C1909), L-carnitine (Sigma, Cat #C0158), 3-(1-pyridinio)-1-propanesulfonate (Sigma, Cat #82804), or the betaine N,N,N-trimethylglycine (Sigma, Cat #B2629) were all added to separate scintillation vials of TMB solution. Each TMB substrate and TMBW (available from SurModics, Inc) in an amount of 20 μL were added to individual aliquots of 980 μL of distilled water. […] Each TMB solution in an amount of 20 μL was added to individual aliquots of 980 μL of distilled water. […] To each TMB solution was added 1 mM hydroxy propyl beta-cyclodextrin (Wacker, 60082620), 3 mm hydroxy propyl beta-cyclodextrin (Wacker, 60082620), or 0.5M of the betaine N,N,N-trimethylglycine (Sigma, Cat #B2629). Each TMB substrate and TMBW (available from SurModics, Inc) in an amount of 20 μL of were added to individual aliquots of 980 μL of distilled water.

HRP = assay: Kinetic rate of HRP oxidation of TMB substrate on anti-peroxidase coated microwell plate, A (650 nm); type: biochemical, horseradish; conditions: 0-1 OD at 650 nm, 0-15 minutes
Procedure: A TMB solution was prepared having the following concentration of reagents: 3 mM TMB (Sigma, Cat #T-2885), 0.5% dimethylsulfoxide (DMSO; […] Various chemicals, used at 0.5M in the TMB solution, were compared against the betaine reagent in non-encapsulation solubilization methods. Glycine (Sigma, Cat #G8898), sarcosine (Sigma, Cat #131776), choline chloride (Sigma, Cat #C1909), L-carnitine (Sigma, Cat #C0158), 3-(1-pyridinio)-1-propanesulfonate (Sigma, Cat #82804), or the betaine N,N,N-trimethylglycine (Sigma, Cat #B2629) were all added to separate scintillation vials of TMB solution. A Nunc Maxisorb 96 microwell plate (Cat #439454) was coated with 100 μL of an 850 ng/mL solution of Rabbit Anti-Peroxidase (Accurate Chemical and Scientific Corporation, Cat #ACZ001021). The plate was then coated with 150 μL of StabilCoat (SurModics, Cat #SC01) for one hour. This was then aspirated and the plate was allowed to dry overnight in a desiccation chamber. Plates were then incubated with 100 μL of 3.125 ng/mL solution of HRP in Stabilzyme HRP Conjugate stabilizer (SurModics, SZ02) for one hour, washed three times, and 100 uL of TMB substrate was added to each well. […] To each TMB solution was added 1 mM hydroxy propyl beta-cyclodextrin (Wacker, 60082620), 3 mm hydroxy propyl beta-cyclodextrin (Wacker, 60082620), or 0.5M of the betaine N,N,N-trimethylglycine (Sigma, Cat #B2629). A Nunc Maxisorb 96 microwell plate (Cat #439454) was coated with 100 μL of an 850 ng/mL solution of Rabbit Anti-Peroxidase (Accurate Chemical and Scientific Corporation, Cat #ACZ001021). The plate was then coated with 150 μL of StabilCoat (SurModics, Cat #SC01) for one hour. This was then aspirated and the plate was allowed to dry overnight in a desiccation chamber. Plates were then incubated with 100 μL of 3.125 ng/mL solution of HRP in Stabilzyme HRP Conjugate stabilizer (SurModics, SZ02) for one hour, washed three times, and 100 uL of TMB substrate was added to each well.

[2] = cited from earlier work
[3] = Example 1: additive at 0.5M in TMB solution (3 mM TMB, 0.5% DMSO, 1.25 mM hydroxypropyl beta-cyclodextrin, 0.01% H2O2, pH 3.5), TMBW as supplied, 20 μL in 980 μL water
[4] = Example 1: additive at 0.5M in TMB solution (3 mM TMB, 1.25 mM hydroxypropyl beta-cyclodextrin, pH 3.5), TMBW as supplied

Dye (A285) [1, 3]: 0.254
Kinetics (mAu/min) (HRP; [4]): 18.432 mAu/min
Molecule: C[N+](C)(C)C[C@H](O)CC(=O)[O-] (racemic) [DL-Carnitine, L-carnitine]

Dye (A285) [1, 3]: 1.175
Kinetics (mAu/min) (HRP; [4]): 49.732 mAu/min
Molecule: O=S(=O)([O-])CCC[n+]1ccccc1 [3-(1-Pyridinio)-1-propanesulfonate, 3-(1-pyridinio)-1-propanesulfonate]

Dye (A285) [1, 3]: 0.358
Kinetics (mAu/min) (HRP; [4]): 41.16 mAu/min
Molecule: NCC(=O)O [Glycine]

Second part, the molecule before the results:

Molecule: Cc1cc(-c2ccc(N)c(C)c2)ccc1N [2-tolidine]
solubility in water [2]: 1.3 g/L (≈ 6.12 mM)

Molecule: Nc1ccc(-c2ccc(N)cc2)cc1 [Benzidine, biphenyl-4,4′-diamine]
solubility in water ([2]; at 100° C., in the absence of the N,N,N-trimethylglycine solubilization reagent): 0.94 g/100 mL

Molecule: C[N+](C)(C)CC(=O)O [Betaine (N,N,N-trimethylglycine), N,N,N-trimethylglycine]
solubility in water ([2]; at 25° C.): up to 64 g/100 mL
solubility in water (molar) ([2]; at 25° C.): ~5.5 M
Dye (A285) [1, 3]: 0.974
Dye (A285) ([1]; Example 2: 0.25M N,N,N-trimethylglycine, 3 mM TMB, 0.5% DMSO, pH 3.5): 0.35
Dye (A285) ([1]; Example 2: 0.5M N,N,N-trimethylglycine, 3 mM TMB, 0.5% DMSO, pH 3.5): 0.535
Dye (A285) ([1]; Example 2: 1M N,N,N-trimethylglycine, 3 mM TMB, 0.5% DMSO, pH 3.5): 0.85
Dye (A285) ([1]; Example 3: 0.5M additive in 3 mM TMB, 0.5% DMSO, 0.01% H2O2, pH 3.5): 1.061
Kinetics (mAu/min) (HRP; [4]): 71.917 mAu/min
Kinetics (mAu/min) (HRP; Example 3: 0.5M additive in 3 mM TMB solution, pH 3.5): 71.739 mAu/min

Molecule: C[N+](C)(C)CCO.[Cl-] [Choline Chloride, choline chloride]
Dye (A285) [1, 3]: 1.074
Kinetics (mAu/min) (HRP; [4]): 2.855 mAu/min

Molecule: CNCC(=O)O [Sarcosine, sarcosine]
Dye (A285) [1, 3]: 0.45
Kinetics (mAu/min) (HRP; [4]): 45.014 mAu/min

Molecule: hydroxy propyl beta-cyclodextrin [Beta Cyclodextrin]
Dye (A285) ([1]; Example 3: 1 mM additive in 3 mM TMB, 0.5% DMSO, 0.01% H2O2, pH 3.5): 0.339
Dye (A285) ([1]; Example 3: 3 mM additive in 3 mM TMB, 0.5% DMSO, 0.01% H2O2, pH 3.5): 0.78
Kinetics (mAu/min) (HRP; Example 3: 1 mM additive in 3 mM TMB solution, pH 3.5): 39.697 mAu/min
Kinetics (mAu/min) (HRP; Example 3: 3 mM additive in 3 mM TMB solution, pH 3.5): 49.775 mAu/min

— US9588123B2, “Compositions and methods for in vitro diagnostic tests including zwitterionic solubilization reagent” (SurModics IVD, Inc., priority 2014, dated 2017)
